In patent publication US5169856A, “Piperidinoalkyl derivatives of carboxylic acid amides” (priority 1988, dated 1992):
Where a name gives a salt, the structure may show the parent alone.

Each compound was assayed against T1, acetylcholinesterase (Rattus norvegicus, UniProt P37136) (assay: Inhibition of cholinesterase activity, radiometric ([acetyl-3H]-acetylcholine), S1 fraction of rat cerebral cortex). Conditions: 15 min preincubation at room temperature, [acetyl-3H]-acetylcholine final 200 μM, 30 min, read-out: Anti-acetylcholinesterase activity IC50.
T1 construct: S1 fraction of the cerebral cortex of male Wistar rats, the enzyme source; from tissue; host or cells: S1 fraction of the cerebral cortex of male Wistar rats
T1 sequence (P37136 32-614): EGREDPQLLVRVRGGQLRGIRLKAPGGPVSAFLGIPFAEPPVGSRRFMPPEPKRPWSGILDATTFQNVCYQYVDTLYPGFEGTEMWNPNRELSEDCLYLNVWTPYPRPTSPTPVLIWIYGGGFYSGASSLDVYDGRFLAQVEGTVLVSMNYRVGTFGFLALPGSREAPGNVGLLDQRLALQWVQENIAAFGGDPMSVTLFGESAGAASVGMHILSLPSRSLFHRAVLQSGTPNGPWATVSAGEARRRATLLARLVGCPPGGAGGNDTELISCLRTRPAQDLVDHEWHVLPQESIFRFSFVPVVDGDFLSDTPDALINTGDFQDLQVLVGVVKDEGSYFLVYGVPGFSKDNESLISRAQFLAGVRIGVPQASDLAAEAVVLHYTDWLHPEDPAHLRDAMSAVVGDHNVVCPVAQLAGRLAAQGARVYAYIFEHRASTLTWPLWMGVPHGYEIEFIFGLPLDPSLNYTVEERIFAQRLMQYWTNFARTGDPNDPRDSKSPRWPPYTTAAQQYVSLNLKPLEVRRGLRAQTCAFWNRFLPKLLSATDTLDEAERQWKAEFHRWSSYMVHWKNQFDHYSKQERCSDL
Assay type: biochemical, male Wistar rats
Protocol: Cholinesterase activity was measured radiometrically by the method of Johnson and Russell^1), modified by Kleinberger and Yanal^2), with a slight modification.
S1 fraction of the cerebral cortex of male Wistar rats, the enzyme source, was preincubated in a scintillation vial with drugs for 15 min at room temperature, and then [acetyl-^3 H]-acetylchollne (final 200 μM) was added and incubated further for 30 min. The reaction was terminated by adding solution containing 1 M chloroacetic acid, followed by toluene-based scintillant, and the vials were capped and shaken to transfer the product, [^3 H]-acetic acid, to toluene phase. Then radioactivity in the toluene phase was counted by liquid scintillation spectrometry. Inhibitory activity of the test drug was expressed by 50%-inhibitory concentration (IC50), which was calculated by linear regression of log-probit transformation of the inhibition curve.
`CC(=Cc1ccccc1)C(=O)NCCC1CCN(Cc2ccccc2)CC1` [Example 4-1] was tested, and the IC50 was 8.1 µM. `CN(CCC1CCN(Cc2ccccc2)CC1)C(=O)/C=C/c1ccccc1` [Example 2, (E)-3-Phenyl-N-methyl-N-[2-(1-benzylpiperidin-4-yl)ethyl]-2-propenamide.hydrochloride] showed an IC50 of 18 µM. `N#Cc1ccc(C=CC(=O)NCCC2CCN(Cc3ccccc3)CC2)cc1` [Example 4-9] gave an IC50 of 3.3 µM. `CS(=O)(=O)c1ccc(C=CC(=O)NCCC2CCN(Cc3ccccc3)CC2)cc1` [Example 4-10] was tested, and the IC50 was 1.6 µM. For `O=C(C=Cc1ccc(Cl)cc1)NCCC1CCN(Cc2ccccc2)CC1` [Example 4-12], the IC50 was 9.2 µM. Work on `O=C(C=Cc1ccco1)NCCC1CCN(Cc2ccccc2)CC1` [Example 4-4] yielded an IC50 of 9.9 µM. `COc1ccc(C=CC(=O)NCCC2CCN(Cc3ccccc3)CC2)cc1OC` [Example 4-6] gave an IC50 of 2.6 µM. For `COc1cc2c(cc1OC)CCC(C(=O)NCCC1CCN(Cc3ccccc3)CC1)=C2` [Example 4-7], the IC50 was 1.2 µM. `O=C(C=Cc1cccs1)NCCC1CCN(Cc2ccccc2)CC1` [Example 4-5] was tested, and the IC50 was 13 µM. Work on `O=C(NCCC1CCN(Cc2ccccc2)CC1)C(=Cc1ccccc1)c1ccccc1` [Example 4-2] yielded an IC50 of 3.5 µM. With `O=C(C=Cc1ccc([N+](=O)[O-])cc1)NCCC1CCN(Cc2ccccc2)CC1` [Example 4-8] the IC50 was 2.8 µM. `Cc1ccc(C=CC(=O)NCCC2CCN(Cc3ccccc3)CC2)cc1` [Example 4-11] showed an IC50 of 15 µM. In the case of `CC(=O)N(CCC1CCN(Cc2ccccc2)CC1)C(=O)/C=C/c1ccccc1` [Example 3, (E)-3-Phenyl-N-acetyl-N-[2-(1-benzylpiperidin-4yl)ethyl]-2-propenamide.hydrochloride], the IC50 is reported as 0.64 µM. Compound `O=C(/C=C/c1ccccc1)NCCC1CCN(Cc2ccccc2)CC1` [Example 1, (E)-3-Phenyl-N-[2-(1-benzylpiperidin-4-yl)ethyl]-2propenamide.hydrochloride] has an IC50 of 9.6 µM. In the case of `O=C(C=Cc1cccnc1)NCCC1CCN(Cc2ccccc2)CC1` [Example 4-3], the IC50 is reported as 2 µM.
